Measurements reported in patent publication US11332470B2, “CXCR4 inhibitors and uses thereof” (X4 Pharmaceuticals, Inc., priority 2016, dated 2022).

Key:
[1] = biological target: T1, CXCR4 (U87.CXCR4 cells) (Homo sapiens, UniProt P61073); assay: Intracellular CXCL-12-induced calcium mobilization assay (FLIPR); assay type: cell-based; conditions: CXCL-12 25-50 ng/mL, read-out: IC50 CXCL-12 Ca2+ flux U87.CXCR4+
T1 construct: expressed in transfected cells; host or cells: U87 (U87.CXCR4)
Protocol: Intracellular CXCL-12-Induced Calcium Mobilization Assay
Intracellular calcium mobilization induced by chemokines or chemokine-derived peptides were evaluated using a calcium responsive fluorescent probe and a FLIPR system. The CXCR-4 transfected U87 cell line (U87.CXCR4) cells were seeded in gelatine-coated black-wall 96-well plates at 20,000 cells per well and incubated for 12 hours. Cells were then loaded with the fluorescent calcium probe Fluo-2 acetoxymethyl at 4 μM final concentration in assay buffer (Hanks' balanced salt solution with 20 mM HEPES buffer and 0.2% bovine serum albumin, pH 7.4) for 45 min at 37° C. The intracellular calcium mobilization induced by the CXCL-12 (25-50 ng/mL) was then measured at 37° C. by monitoring the fluorescence as a function of time in all the wells simultaneously using a fluorometric imaging plate reader (FLIPR Tetra, Molecular Devices).

[2] = biological target: T2, CXCR4 (Jurkat cells expressing CXCR4) (Homo sapiens, UniProt P61073); assay: Chemokine (CXCL12-AF647) binding inhibition assay; conditions: CXCL12-AF647 25 ng/mL, read-out: IC50 CXCL-12 binding Jurkat
T2 construct: Jurkat cells expressing CXCR4; endogenous in cells; host or cells: Jurkat
Protocol: Chemokine (CXCL12-AF647) Binding Inhibition Assay
Jurkat cells expressing CXCR4 were washed once with assay buffer (Hanks' balanced salt solution with 20 mM HEPES buffer and 0.2% bovine serum albumin, pH 7.4) and then incubated for 15 min at room temperature with the test compounds diluted in assay buffer at dose-dependent concentrations. Subsequently, CXCL12-AF647 (25 ng/mL) was added to the compound-incubated cells. The cells were incubated for 30 min at room temperature. Thereafter, the cells were washed twice in assay buffer, fixed in 1% paraformaldehyde in PBS, and analyzed on the FL4 channel of a FACSCalibur flow cytometer equipped with a 635-nm red diode laser (Becton Dickinson, San Jose, Calif., USA).
The percentages of inhibition of CXCL12-AF647 binding were calculated according to the formula: [1−((MFI−MFINC)/(MFIPC−MFINC))]×100 where MFI is the mean fluorescence intensity of the cells incubated with CXCL12-AF647 in the presence of the inhibitor, MFINC is the mean fluorescence intensity measured in the negative control (i.e., autofluorescence of unlabeled cells), and MFIPC is the mean fluorescence intensity of the positive control (i.e., cells exposed to CXCL12-AF647 alone).

T2 sequence (P61073 whole entry): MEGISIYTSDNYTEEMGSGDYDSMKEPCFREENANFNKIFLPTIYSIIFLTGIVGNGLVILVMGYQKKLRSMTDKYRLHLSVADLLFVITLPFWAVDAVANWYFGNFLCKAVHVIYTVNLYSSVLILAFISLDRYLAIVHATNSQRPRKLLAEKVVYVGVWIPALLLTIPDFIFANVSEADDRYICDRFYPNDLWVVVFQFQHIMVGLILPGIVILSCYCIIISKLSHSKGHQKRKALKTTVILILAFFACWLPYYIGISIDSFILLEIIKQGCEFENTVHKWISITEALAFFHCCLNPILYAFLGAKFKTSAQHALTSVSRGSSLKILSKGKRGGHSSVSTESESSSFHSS
T1 sequence (P61073 whole entry): as above

Cc1cccnc1C1CCCN1Cc1cc2c(N3CCN(C)CC3)cccc2o1 (centres unmarked) [Compound I-73]
IC50 [1]: ≥ 1000 nM
IC50 [2]: 100 to 1000 nM

Cc1cccnc1C1CCCN1C(=O)c1cn2c(N3CCN(C)CC3)cccc2n1 (centres unmarked) [Compound I-74]
IC50 [1]: ≥ 1000 nM
IC50 [2]: ≥ 1000 nM

Cc1cccnc1CN1CCCC1c1nc2ccccc2n1C1CCN(C)CC1 (centres unmarked) [Compound I-77]
IC50 [1]: ≥ 1000 nM
IC50 [2]: 0.01 to 100 nM

CN1CCC(n2c(C3CCCN3Cc3ccccn3)nc3ccccc32)CC1 (centres unmarked) [Compound I-78]
IC50 [1]: ≥ 1000 nM
IC50 [2]: 0.01 to 100 nM

Cc1cccnc1C1CCCN1Cc1nc2ccccn2c1CCC#N (centres unmarked) [Compound I-81]
IC50 [1]: ≥ 1000 nM
IC50 [2]: 100 to 1000 nM

Cc1cccnc1C1CCCN1Cc1cccc(C(=O)Nc2ccncc2)n1 (centres unmarked) [Compound I-90]
IC50 [1]: ≥ 1000 nM
IC50 [2]: 100 to 1000 nM

OCc1c(CN2CCCC2c2ccccn2)nc2ccccn12 (centres unmarked) [Compound I-93]
IC50 [1]: ≥ 1000 nM
IC50 [2]: 100 to 1000 nM

c1ccc(C2CCCN2Cc2nc3ccccn3c2COc2cccnc2)nc1 (centres unmarked) [Compound I-95]
IC50 [1]: ≥ 1000 nM
IC50 [2]: ≥ 1000 nM

Cc1cccnc1CN1CCCC1c1nc2ccccn2c1N1CCN(C)CC1 (centres unmarked) [Compound I-100]
IC50 [1]: 0.01 to 100 nM
IC50 [2]: 0.01 to 100 nM

Cc1cccnc1C1CCCN1Cc1nccn1-c1ccccn1 (centres unmarked) [Compound I-113]
IC50 [1]: ≥ 1000 nM
IC50 [2]: ≥ 1000 nM

Cc1cccnc1C1CCCN1Cc1nccn1-c1cccnc1 (centres unmarked) [Compound I-114]
IC50 [1]: ≥ 1000 nM
IC50 [2]: 100 to 1000 nM

Cc1cccnc1C1CCCN1Cc1nccn1-c1ccncc1 (centres unmarked) [Compound I-115]
IC50 [1]: ≥ 1000 nM
IC50 [2]: 100 to 1000 nM

Cc1cccnc1C1CCCN1Cc1cccc(CC2CCN(C)CC2)n1 (centres unmarked) [Compound I-116]
IC50 [1]: ≥ 1000 nM
IC50 [2]: ≥ 1000 nM

Cc1cccnc1C1CCCN1Cc1nccn1C(=O)N1CCN(C)CC1 (centres unmarked) [Compound I-125]
IC50 [1]: ≥ 1000 nM
IC50 [2]: 100 to 1000 nM

Cc1cccnc1CN1CCCC1c1cn2c(N3CCN(CC(F)(F)F)CC3)cccc2n1 (centres unmarked) [Compound I-129]
IC50 [1]: ≥ 1000 nM
IC50 [2]: ≥ 1000 nM

c1ccc(C2CCCN2Cc2nc3ccccn3c2N2CCN(c3ccncc3)CC2)nc1 (centres unmarked) [Compound I-133]
IC50 [1]: ≥ 1000 nM
IC50 [2]: 100 to 1000 nM
